These results are taken from article PMC3556037, “Stimulation of Inositol 1,4,5-Trisphosphate (IP3) Receptor Subtypes by Analogues of IP3” (PLoS ONE, 2013).

Holding throughout (test): Ca2+ release from ER of permeabilized DT40 cells, luminal Mag fluo-4
For test [1], the target named is T1, IP3R3 (Rattus norvegicus, UniProt Q63269).
T1 construct: gene Itpr3; full-length, homotetramer, stably expressed in DT40 cells lacking all endogenous IP3R; saponin-permeabilized cells
The format is cell-based. An excerpt: (§1) Ca2+ release from ER of permeabilized DT40 cells, luminal Mag fluo-4 on IP3R3

The next test has as its target T2, IP3R2 (Mus musculus, UniProt Q9Z329).
T2 construct: gene Itpr2; full-length, homotetramer, stably expressed in DT40 cells lacking all endogenous IP3R; saponin-permeabilized cells
Type of test: cell-based. An excerpt: Ca2+ release from ER of permeabilized DT40 cells, luminal Mag fluo-4 on IP3R2

Test [2] has as its target T1, IP3R3. The format is biochemical.
Source text: as §1

Setting [3] is: 100 µM, 1.5 mM MgATP, free Ca2+ ~220 nM, pH 7, 20 °C, thapsigargin 1 µM, unreliable: paper suspects minor contamination by active IP3.

SMILES strings stand for the structures. Like-named read-outs stand apart in the source and are kept apart here.

One may read the EC50 as the midpoint of the concentration-response curve.

T2 sequence (Q9Z329 whole entry): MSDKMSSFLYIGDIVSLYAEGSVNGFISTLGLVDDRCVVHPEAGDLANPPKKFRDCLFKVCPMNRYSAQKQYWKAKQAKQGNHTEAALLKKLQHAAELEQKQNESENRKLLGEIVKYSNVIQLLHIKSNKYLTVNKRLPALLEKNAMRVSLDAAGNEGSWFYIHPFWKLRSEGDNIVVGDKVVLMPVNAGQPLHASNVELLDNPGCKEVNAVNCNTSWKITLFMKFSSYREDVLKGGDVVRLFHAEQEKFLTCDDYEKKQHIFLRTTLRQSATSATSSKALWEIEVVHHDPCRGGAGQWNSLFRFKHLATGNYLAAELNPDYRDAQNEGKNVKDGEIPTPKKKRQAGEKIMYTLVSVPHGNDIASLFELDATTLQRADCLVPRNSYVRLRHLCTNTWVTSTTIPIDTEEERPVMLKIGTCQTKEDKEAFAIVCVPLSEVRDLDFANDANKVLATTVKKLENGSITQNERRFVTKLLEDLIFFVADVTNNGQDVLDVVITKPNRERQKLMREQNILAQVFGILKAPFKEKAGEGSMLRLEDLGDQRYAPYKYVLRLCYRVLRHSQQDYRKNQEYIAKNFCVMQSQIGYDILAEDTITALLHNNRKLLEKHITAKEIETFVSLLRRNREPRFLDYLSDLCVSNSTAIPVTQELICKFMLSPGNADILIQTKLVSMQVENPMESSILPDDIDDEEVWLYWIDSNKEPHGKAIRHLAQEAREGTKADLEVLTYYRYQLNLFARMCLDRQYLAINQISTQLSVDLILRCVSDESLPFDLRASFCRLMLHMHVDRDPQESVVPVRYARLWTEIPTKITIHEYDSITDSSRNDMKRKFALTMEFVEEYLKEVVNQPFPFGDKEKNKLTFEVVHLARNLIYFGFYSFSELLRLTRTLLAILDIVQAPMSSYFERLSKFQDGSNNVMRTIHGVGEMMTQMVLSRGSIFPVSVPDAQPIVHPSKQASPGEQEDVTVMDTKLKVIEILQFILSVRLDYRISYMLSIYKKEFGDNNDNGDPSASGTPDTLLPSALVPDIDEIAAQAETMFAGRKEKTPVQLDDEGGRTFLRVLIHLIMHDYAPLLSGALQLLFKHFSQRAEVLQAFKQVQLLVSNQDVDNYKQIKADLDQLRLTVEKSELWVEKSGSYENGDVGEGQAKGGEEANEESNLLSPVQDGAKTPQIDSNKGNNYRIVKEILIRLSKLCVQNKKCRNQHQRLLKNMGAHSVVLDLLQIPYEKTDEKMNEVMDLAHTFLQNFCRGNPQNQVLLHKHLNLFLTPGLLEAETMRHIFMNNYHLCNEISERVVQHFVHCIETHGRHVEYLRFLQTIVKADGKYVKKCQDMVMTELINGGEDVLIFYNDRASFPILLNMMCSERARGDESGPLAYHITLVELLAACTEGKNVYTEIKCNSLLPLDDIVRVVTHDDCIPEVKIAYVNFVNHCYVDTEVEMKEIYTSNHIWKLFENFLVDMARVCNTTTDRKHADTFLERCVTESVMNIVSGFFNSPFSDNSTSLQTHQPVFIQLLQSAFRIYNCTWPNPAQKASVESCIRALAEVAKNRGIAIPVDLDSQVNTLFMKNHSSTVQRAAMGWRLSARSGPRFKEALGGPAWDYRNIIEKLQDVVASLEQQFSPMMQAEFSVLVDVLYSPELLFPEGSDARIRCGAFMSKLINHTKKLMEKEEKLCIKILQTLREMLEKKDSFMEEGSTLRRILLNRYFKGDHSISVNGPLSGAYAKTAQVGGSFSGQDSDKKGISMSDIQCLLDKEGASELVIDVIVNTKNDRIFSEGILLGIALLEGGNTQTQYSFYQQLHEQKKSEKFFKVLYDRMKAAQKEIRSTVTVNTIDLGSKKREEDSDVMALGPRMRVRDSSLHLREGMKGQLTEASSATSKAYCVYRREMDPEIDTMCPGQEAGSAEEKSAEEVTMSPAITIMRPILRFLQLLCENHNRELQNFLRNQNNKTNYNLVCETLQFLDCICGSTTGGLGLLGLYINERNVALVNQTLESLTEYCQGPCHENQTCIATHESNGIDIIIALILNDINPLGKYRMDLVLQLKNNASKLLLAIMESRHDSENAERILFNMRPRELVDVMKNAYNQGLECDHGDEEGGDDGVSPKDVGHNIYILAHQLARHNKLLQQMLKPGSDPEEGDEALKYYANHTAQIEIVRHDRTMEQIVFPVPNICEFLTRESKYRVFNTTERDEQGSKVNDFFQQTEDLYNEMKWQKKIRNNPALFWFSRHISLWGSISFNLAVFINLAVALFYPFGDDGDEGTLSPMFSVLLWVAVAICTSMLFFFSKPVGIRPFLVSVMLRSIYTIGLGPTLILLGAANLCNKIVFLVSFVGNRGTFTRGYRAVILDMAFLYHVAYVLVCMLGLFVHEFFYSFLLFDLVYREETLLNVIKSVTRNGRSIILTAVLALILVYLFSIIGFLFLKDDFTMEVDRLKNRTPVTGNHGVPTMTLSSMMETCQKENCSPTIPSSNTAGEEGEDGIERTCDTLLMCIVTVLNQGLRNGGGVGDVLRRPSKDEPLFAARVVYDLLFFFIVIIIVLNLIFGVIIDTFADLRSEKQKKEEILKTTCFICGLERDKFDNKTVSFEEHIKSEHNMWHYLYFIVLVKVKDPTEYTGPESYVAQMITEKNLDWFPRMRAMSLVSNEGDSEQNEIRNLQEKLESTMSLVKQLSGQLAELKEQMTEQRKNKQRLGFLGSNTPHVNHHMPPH

Consider `O=P(O)(O)O[C@@H]1[C@H](O)[C@H](O)[C@@H](OP(=O)(O)O)[C@H](OP(=O)(O)O)[C@H]1O` [(1,4,5)IP3], for which the EC50 at IP3R3 [1] came to 0.417 µM; at IP3R2 it was 0.145 µM.

For the compound `CN(C)c1ccc(C(=C2C=CC(=[N+](C)C)C=C2)c2ccc(C(=O)NCCCOP(=O)(O)O[C@@H]3[C@H](O)[C@H](O)[C@@H](OP(=O)(O)O)[C@H](OP(=O)(O)O)[C@H]3O)cc2)cc1` [MG(1,4,5)IP3], the figures for the EC50 at IP3R3 [2] and at IP3R2 were 1.74 µM and 0.708 µM, respectively.

In the case of `O=P(O)(O)O[C@@H]1[C@@H](O)[C@@H](O)[C@@H](OP(=O)(O)O)[C@H](OP(=O)(O)O)[C@H]1O` [(1,4,6)IP3], the EC50 is 15.8 µM at IP3R3 [1] and 12.6 µM at IP3R2.

As for `O=P(O)(O)O[C@@H]1[C@@H](O)[C@H](OP(=O)(O)O)C[C@H](O)[C@H]1OP(=O)(O)O` [2-deoxy(1,4,5)IP3], the figures for the EC50 on IP3R3 [1] and at IP3R2 were 0.324 µM and 0.115 µM, respectively.

Consider `O=P(O)(O)O[C@@H]1[C@@H](O)[C@H](OP(=O)(O)O)[C@H](O)C[C@H]1OP(=O)(O)O` [3-deoxy(1,4,5)IP3], for which the EC50 amounted to 15.8 µM on IP3R3 [2] and 5.89 µM at IP3R2.

In the case of `O=P(O)(O)O[C@H]1[C@H](O)[C@@H](O)[C@H](OP(=O)(O)O)[C@@H](OP(=O)(O)O)[C@H]1O` [(1,3,4)IP3], the “IP3R3 / Ca^2+release (%)” value at IP3R3 [1] (setting [3]) stood at 2±1%. Besides, the “IP3R2 / Ca^2+release (%)” value at IP3R2 (setting [3]) is 18±6%.

Consider `O=P(O)(O)O[C@@H]1[C@@H](O)[C@H](O)[C@H](O)[C@H](O)[C@H]1OP(=O)(O)O` [(4,5)IP2], for which the EC50 on IP3R3 [1] stood at 11.5 µM; at IP3R2, 6.31 µM.
